# Non-standard residues stand in square brackets, D forms with d. No end group written: not given here. *: point of attachment. Nle = CCCC[C@H](N)C(=O)O; For = O=C*
# T1: WKRMVm
# T1 chain: WKRMV[dM]
# T2: WKGMVm
# T2 chain: WKGMV[dM]
# B1: FPRL1 (protein)
# chain: METNFSTPLNEYEEVSYESAGYTVLRILPLVVLGVTFVLGVLGNGLVIWVAGFRMTRTVTTICYLNLALADFSFTATLPFLIVSMAMGEKWPFGWFLCKLIHIVVDINLFGSVFLIGFIALDRCICVLHPVWAQNHRTVSLAMKVIVGPWILALVLTLPVFLFLTTVTIPNGDTYCTFNFASWGGTPEERLKVAITMLTARGIIRFVIGFSLPMSIVAICYGLIAAKIHKKGMIKSSRPLRVLTAVVASFFICWFPFQLVALLGTVWLKEMLFYGKYKIIDILVNPTSSLAFFNSCLNPMLYVFVGQDFRERLIHSLPTSLERALSEDSAPTNDTAANSASPPAETELQAM
# Tests used:
# FPR = conditions: read-out: Kd for FPR; cited from earlier work
# FPRL1 = conditions: cited from earlier work
# [1] = target: formyl peptide receptor-like 1; conditions: cited from earlier work
# WKRMVm = target: T1, WKRMVm; experiment: competition flow cytometry
# WKGMVm = target: T2, WKGMVm; experiment: competition flow cytometry
# WKYMVm = experiment: competition
molecule,measurement,setting,value
N-formyl -Met-Leu-Phe-Lys-fluorescein (For-MLFK(fluorescein)) [fMLFK-FITC],Kd,FPR,3 nM
same,Binding to FPRL1,FPRL1,does not bind
W[Nle]YM [WNleYM],EC50,[1],5.34 nM
B1,IC50,WKRMVm,705 nM
same,IC50,WKGMVm,176 nM
same,IC50,WKYMVm,1.8 nM

# From publication PMC2917377 (Cytometry. Part A : the journal of the International …, 2009)
